In experiment [1] the target is T1, COX-1 (Homo sapiens, UniProt P23219). The experiment can be described thus: Whole cell assay for COX-1 using CHO transfected cell line CHO[hCOX-1]. It is filed as cell-based. More on the design: platelets in whole blood contain a large amount of the COX-1 enzyme; endogenous in cells; host or cells: platelets in fresh human whole blood without anticoagulant. To be noted: CHO[hCOX-1] cells, 0.5 µM AA, PGE2. Here is the method: (§1) Chinese hamster ovary (CHO) cell lines which have been stably transfected with an eukaryotic expression vector pCDNAIII containing either the human COX-1 or COX-2 cDNA's are used for the assay. These cell lines are referred to as CHO [hCOX-1] and CHO [hCOX-2], respectively. For cyclooxygenase assays, CHO[hCOX-1] cells from suspension cultures and CHO[hCOX-2] cells prepared by trypsinization of adherent cultures are harvested by centrifugation (300 x g, 10 min) and washed once in HBSS containing 15 mM HEPES, pH 7.4, and resuspended in HBSS, 15 mM HEPES, pH 7.4, at a cell concentration of 1.5 x 10^6 cells/ml. Drugs to be tested are dissolved in DMSO to 66.7-fold the highest test drug concentration. Compounds are typically tested at 8 concentrations in duplicate using serial 3-fold serial dilutions in DMSO of the highest drug concentration. […] Cyclooxygenase activity in the absence of test compounds is determined as the difference in PGE2 levels of cells challenged with arachidonic acid versus the PGE2 levels in cells mock-challenged with ethanol vehicle. Inhibition of PGE2 synthesis by test compounds is calculated as a percentage of the activity in the presence of drug versus the activity in the positive control samples. […] In the assays, inhibition is determined by measuring the amount of a prostaglandin synthesized in the presence and absence of a putative inhibitor. […]

The test system of another experiment is Rat Paw edema. Description: Rat paw edema assay (carrageenan). To be noted: po, 1 hr before carrageenan, paw volume 3 hr later. It is filed as in vivo, Male Sprague-Dawley rats. The procedure: Male Sprague-Dawley rats (150-200 g) are fasted overnight and are given po, either vehicle (1% methocel or 5% Tween 80) or a test compound. One hr later, a line is drawn using a permanent marker at the level above the ankle in one hind paw to define the area of the paw to be monitored. The paw volume (V0) is measured using a plethysmometer (Ugo-Basile, Italy) based on the principle of water displacement. The animals are then injected subplantarly with 50 µl of 1% carrageenan solution in saline (FMC Corp, Maine) into the paw using an insulin syringe with a 25-gauge needle (i.e. 500 µg carrageenan per paw). Three hr later, the paw volume (V3) is measured and the increases in paw volume (V3 - VO) are calculated. The animals are sacrificed by CO2 asphyxiation and the absence or presence of stomach lesions scored. Data is compared with the vehicle-control values and percent inhibition calculated. All treatment groups are coded to eliminate observer bias.
Compounds of the present invention are inhibitors of COX-2 and are thereby useful in the treatment of COX-2 mediated diseases as enumerated above. The activities of compound A against cyclooxygenase may be seen in the representative results shown below in the Table. In the assays, inhibition is determined by measuring the amount of a prostaglandin synthesized in the presence and absence of a putative inhibitor. […]
(In general: The carrageenan paw model is a standard test of acute inflammation.)

Experiment [2] deals with T1, COX-1. The experiment can be described thus: Human whole blood assay, COX-1 (clotting-induced TxB2 production). It is filed as cell-based. More on the design: platelets in whole blood contain a large amount of the COX-1 enzyme; endogenous in cells; host or cells: platelets in fresh human whole blood without anticoagulant. To be noted: clotting-induced TxB2, 1 hour at 37°C. Here is the method:
(§2) Human whole blood provides a protein and cell-rich milieu appropriate for the study of biochemical efficacy of anti-inflammatory compounds such as selective COX-2 inhibitors. […] This is consistent with the observation that COX-2 inhibitors have no effect on PGE2 production in normal blood. These inhibitors are active only after incubation of human whole blood with LPS, which induces COX-2. This assay can be used to evaluate the inhibitory effect of selective COX-2 inhibitors on PGE2 production. As well, platelets in whole blood contain a large amount of the COX-1 enzyme. Immediately following blood clotting, platelets are activated through a thrombin-mediated mechanism. […] Thus, the effect of test compounds on TxB2 levels following blood clotting can be examined and used as an index for COX-1 activity. Therefore, the degree of selectivity by the test compound can be determined by measuring the levels of PGE2 after LPS induction (COX-2) and TxB2 following blood clotting (COX-1) in the same assay. Fresh blood is collected into vacutainers containing no anticoagulants. […] In the assays, inhibition is determined by measuring the amount of a prostaglandin synthesized in the presence and absence of a putative inhibitor. […]

Experiment [3] has as its target T1, COX-1. Description: Assay of COX-1 activity from U937 cell microsomes. It is filed as biochemical. More on the design: endogenous in cells; host or cells: U937 cells, 100,000 x g microsomal fraction. To be noted: PGE2. The procedure:
U 937 cells are pelleted by centrifugation at 500 x g for 5 min and washed once with phosphate-buffered saline and repelleted. Cells are resuspended in homogenization buffer consisting of 0.1 M Tris-HCl, pH 7.4, 10 mM EDTA, 2 µg/ml leupeptin, 2 µg/ml soybean trypsin inhibitor, 2 µg/ml aprotinin and 1 mM phenyl methyl sulfonyl fluoride. The cell suspension is sonicated 4 times for 10 sec and is centrifuged at 10,000 x g for 10 min at 4° C. The supernatant is centrifuged at 100,000 x g for 1 hr at 4° C. The 100,000 x g microsomal pellet is resuspended in 0.1 M Tris-HCl, pH 7.4, 10 mM EDTA to approximately 7 mg protein/ml and stored at -80° C. Microsomal preparations are thawed immediately prior to use, subjected to a brief sonication, and then diluted to a protein concentration of 125 µg/ml in 0.1 M Tris-HCl buffer, pH 7.4 containing 10 mM EDTA, 0.5 mM phenol, 1 mM reduced glutathione and 1 µM hematin. Assays are performed in duplicate in a final volume of 250 µl. […] Samples are neutralized with 25 µl of 1 N NaOH prior to quantitation of PGE2 content by radioimmunoassay (Dupont-NEN or Amersham assay kits). […] In the assays, inhibition is determined by measuring the amount of a prostaglandin synthesized in the presence and absence of a putative inhibitor. […]

Experiment [4] addresses T2, COX-2 (Homo sapiens, UniProt P35354).
T2 construct: endogenous in cells; host or cells: fresh heparinized human whole blood from volunteers, LPS-stimulated
T2 sequence (P35354 18-604): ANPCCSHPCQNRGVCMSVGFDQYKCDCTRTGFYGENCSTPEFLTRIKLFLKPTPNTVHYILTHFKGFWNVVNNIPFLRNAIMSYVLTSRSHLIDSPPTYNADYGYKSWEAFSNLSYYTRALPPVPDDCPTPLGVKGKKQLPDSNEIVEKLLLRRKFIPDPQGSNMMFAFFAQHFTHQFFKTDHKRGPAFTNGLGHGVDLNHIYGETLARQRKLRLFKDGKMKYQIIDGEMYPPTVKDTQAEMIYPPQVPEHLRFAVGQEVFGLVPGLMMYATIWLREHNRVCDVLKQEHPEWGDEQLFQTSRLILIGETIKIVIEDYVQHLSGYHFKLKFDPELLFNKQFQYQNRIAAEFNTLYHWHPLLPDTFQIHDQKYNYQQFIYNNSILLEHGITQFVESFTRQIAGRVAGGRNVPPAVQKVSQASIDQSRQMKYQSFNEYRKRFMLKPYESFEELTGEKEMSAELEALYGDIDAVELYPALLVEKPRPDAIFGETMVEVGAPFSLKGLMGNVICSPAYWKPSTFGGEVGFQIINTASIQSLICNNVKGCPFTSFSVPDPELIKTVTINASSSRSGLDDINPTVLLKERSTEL
Description: Whole cell assay for COX-2 using CHO transfected cell line CHO[hCOX-2]. It is filed as cell-based. To be noted: CHO[hCOX-2] cells, 10 µM AA, PGE2. Here is the method: as §1

Experiment [5] deals with T2, COX-2. The experiment can be described thus: Human whole blood assay, COX-2 (LPS-induced PGE2 production). It is filed as cell-based. To be noted: LPS-induced PGE2, 24 hours at 37°C. The procedure:
as §2, with “in heparinized tubes by venipuncture from both male and female volunteers. The subjects have” for “into vacutainers containing”, “apparent inflammatory conditions and have not taken any NSAIDs for at least 7 days prior to blood collection.” for “anticoagulants.”

T1 sequence (P23219 24-599): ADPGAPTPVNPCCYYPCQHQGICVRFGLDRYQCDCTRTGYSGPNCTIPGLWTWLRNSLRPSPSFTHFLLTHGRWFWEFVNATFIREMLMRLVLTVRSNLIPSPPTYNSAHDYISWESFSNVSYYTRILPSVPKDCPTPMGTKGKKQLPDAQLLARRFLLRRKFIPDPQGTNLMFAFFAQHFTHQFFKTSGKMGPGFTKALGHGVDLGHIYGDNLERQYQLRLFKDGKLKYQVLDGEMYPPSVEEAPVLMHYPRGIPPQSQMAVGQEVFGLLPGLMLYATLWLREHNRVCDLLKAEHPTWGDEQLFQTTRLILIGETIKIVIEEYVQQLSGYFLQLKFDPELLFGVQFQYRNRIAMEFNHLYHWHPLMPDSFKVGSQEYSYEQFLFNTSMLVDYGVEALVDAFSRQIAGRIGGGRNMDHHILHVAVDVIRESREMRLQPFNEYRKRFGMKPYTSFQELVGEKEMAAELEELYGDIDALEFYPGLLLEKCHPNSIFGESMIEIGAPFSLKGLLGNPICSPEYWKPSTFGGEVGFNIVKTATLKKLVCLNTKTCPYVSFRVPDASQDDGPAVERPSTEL

For the molecule `CS(=O)(=O)c1ccc(C2=C(c3cc(F)cc(F)c3)C(=O)CC2)cc1` [Compound A, 2-(3,5-difluorophenyl)-3-(4-(methylsulfonyl)phenyl)-2-cyclopenten-1-one], the IC50 (usually the concentration that inhibits the measured activity by half) was more than 50 µM at COX-1 [1]; 77 µM at COX-1 [2]; 11 µM against COX-1 [3]; 0.03 µM against COX-2 [4]; 0.45 µM against COX-2 [5]. Further, the median effective dose (ED50) (as a rule, the dose at which the effect has come halfway, by size or by number of responders) in the experiment with Rat Paw edema was found to be 2.6 mg/kg.
Turning to `CS(=O)(=O)c1ccc(C2=C(c3ccc(F)cc3)C(=O)CC2)cc1` [Compound B], the IC50 was found to be 17 µM against COX-1 [1] (unit inferred); 4.4 µM at COX-1 [2]; 0.45 µM against COX-1 [3]; 0.02 µM against COX-2 [4]; 0.12 µM against COX-2 [5]. The ED50 with Rat Paw edema was determined as 3 mg/kg.

For the origin of these results see patent publication EP0863134A1, “2-(3,5-difluorophenyl)-3-(4-(methyl-sulfonyl)phenyl)-2-cyclopenten-1-one useful as an inhibitor of cyclooxygenase-2” (MERCK FROSST CANADA INC., priority 1997, dated 1998).
